From patent US20120136033A1, “Small Molecule Antagonists of Phosphatidylinositol-3,4,5-Triphosphate (PIP3) and Uses Thereof” (President and Fellows of Harvard College, priority 2009, published 2012)

What was measured:
Akt PH domain = target: T1, Akt PH domain (Homo sapiens, UniProt P31749); assay: PH domain translocation assay, GFP-fused Akt PH domain; type: cell-based; details: 100 μM, 2 hr, PDGF stimulation
T1 construct: Akt PH domain-GFP, VAV2-GFP and VAV3-GFP vectors were generous gifts of Dr. Joanne Brugge; expressed in transfected cells
Experimental: (§1) Cells were transfected with the corresponding GFP-fusion vectors, serum starved overnight, and incubated with 100 μM PITs or PIT-1is for 2 hr, followed by stimulation with 100 ng/ml PDGF or 250 ng/ml PMA for 5 min. The translocation was analyzed using fluorescent microscope and was quantitated by counting the number of cells with translocated PH domains in five random fields.
(§2) To begin characterizing cellular activity of PITs, a PH domain translocation assay was performed, measuring PIP3-induced association of GFP-fused PH domains with the plasma membrane. This method provides useful means for monitoring status of the PH domain/PIP3 binding in the intact cells. Varnai P et al. (1999) J Biol Chem 274:10983-9. Several PH-domain-containing proteins, which are known to bind PIP3 specifically and efficiently, were examined. […] Oikawa T et al. (2004) Nat Cell Biol 6:420-6.

Btk PH domain = target: T2, Btk PH domain (Homo sapiens, UniProt Q06187); assay: PH domain translocation assay, GFP-fused Btk PH domain; type: cell-based; details: 100 μM, 2 hr, PDGF stimulation
T2 construct: Btk PH domain-GFP vector was purchased from Signagen Laboratories
Experimental: as §1, §2

VAV2 = target: T3, VAV2 (Homo sapiens, UniProt P52735); assay: plasma membrane translocation assay, VAV2-GFP; type: cell-based; details: PDGF stimulation
T3 construct: expressed in transfected cells; host or cells: SUM159
Experimental: as §2

U87MG cells = assay: U87MG cell viability, ATP assay; type: cell-based, human; details: for viability of U87MG cells: 12.5-100 μM, 48 hr, ATP assay
Experimental: U87MG cells were incubated with PITs (12.5-100 μM) for 48 hr. Cell viability was determined using ATP assay.
Based on the critical role of PIP3-dependent Akt signaling in the regulation of cell survival, the effect of PIT-1 on the cancer cell viability was tested. Cancer cells were seeded into 96-well plates (white plates for ATP assay; black plates for fluorescent assay; clear plates for MTS assay) at the density of 5-10×10^3 cells per well in 100 μl of the appropriate media. Compounds were added at a series of concentrations and incubated for different times. For the ATP assay, a luminescence-based commercial kit (CellTiter-Glo, Promega, Madison, Wis.) was used. Thirty microliters of cell lysis/ATP detection reagent was added to each well, mixed for 10 min at room temperature, and the luminescence was measured using a Wallac Victor 3 plate reader (Perkin-Elmer, Wellesley, Mass.). For the MTS assay, a CellTiter 96 AQueous Non-Radioactive Cell Proliferation Assay Kit (Promega, Madison, Wis., USA) was used. Twenty microliters of the combined MTS/PMS solution was added into each well, incubated for 4 hr at 37° C., and the absorbance at 490 nm was measured using a Wallac Victor 3 plate reader. For the Sytox cell death assay, measuring loss of plasma membrane integrity, cells were incubated with 1 μM Sytox Green reagent (Molecular Probes, Eugene, Oreg.) for 30 min at 37° C. and the fluorescence intensity was measured using Wallac Victor 3 plate reader with excitation at 485 nm and emission at 545 nm. Next, 5 μl of 20% (v/v) Triton X-100 solution was added to each well and incubated for 1 hr at 37° C., and the signal was measured again. The ratio of values (percentage of dead cells in each well) before and after Triton X-100 treatment was calculated and normalized to the relevant controls not subjected to the cytotoxic stimuli. IC50 values were determined using Origin6 software (MicroCal, LLC, Northampton, Mass.).

human cancer cells = assay: transwell (Boyden chamber) migration of cancer cells; type: cell-based; details: for inhibition of cancer cell migration: transwell / wound healing models
Experimental: Two models of cell migration were used, a transwell migration model and a wound closure model. Migration of cancer and endothelial cells was evaluated using 24-transwell Boyden chamber (Costar, Bedford, Mass.) with a polystyrene membrane (6.5 mm diameter, 10 μm thickness, and 8 μm pore size). Cells were suspended in serum-free media and seeded in the upper compartment of each well (2×10^4 cells/well) in the presence or absence of different compounds at the indicated concentrations. The lower compartment contained 600 μl of serum-free culture media supplemented with growth factors. After an 8-hr incubation at 37° C., cells were fixed and stained with 0.1% crystal violet. Non-migrating cells on the upper surface of the filter were removed, and the stained cells that migrated to the lower side were photographed using a phase-contrast microscope (Nikon, Japan) in five random fields. The cells were lysed with 10% acetic acid, and colorimetric determination was made at 595 nm using Wallac Victor 3 plate reader.

cancer cells = type: cell-based
[1] = system: SUM159 cells transfected with VAV2 or WAVE2; assay: wound healing migration of VAV- or WAVE-overexpressing SUM159 cells; type: cell-based, human; details: 100 μM, PDGF, 8 hr
Experimental: SUM159 cells were transfected with VAV2 or WAVE2. Scratch wound was generated in cell monolayer, followed by treatment with PIT-1 (100 μM) in the presence of PDGF (100 ng/ml) stimulation for 8 hr. The inhibitory effect of PITs on VAV- or WAVE-induced cell migration was calculated according to the width of wound. The width of wounded cell monolayers was measured in five random fields.

Rac1 = Rac1 activation pull-down (GST-Pak1-PBD) in SUM159 cells; type: cell-based, human; details: 2 hr, PDGF 100 ng/ml
Experimental: Rho/Rac family, especially Rac1, plays a critical role in actin polymerization, membrane ruffling/lamellipodia formation, and cell motility (Ridley A J et al. (1992) Cell 70:401-410) downstream of the GEFs, e.g., VAV family, and upstream of the WAVE family. The effect of PITs on Rac1 activation was therefore analyzed. SUM159 cells were seeded on 10 cm^2 plates and serum starved overnight, treated with different PIT compounds at a variety of concentrations for 2 hr, and then stimulated with 100 ng/ml PDGF for […]. Next, cells were rinsed once with PBS, and 1 ml lysis buffer (25 mM Tris-HCl, pH 7.5, 150 mM NaCl, 5 mM MgCl2, 1% NP-40, 1 mM DTT, 5% glycerol, 1 μg/ml aprotinin, 1 μg/ml leupeptin and 1 mM PMSF) was added per plate. The cells were scraped and transferred to a microcentrifuge tube, vortexed briefly, and incubated on ice for 5 min, followed by a centrifugation at 16,000×g at 4° C. for 15 min. The supernatant was collected. A sample of the lysate was used to ensure equal protein concentration in the samples. Next, 700 μl lysate, 20 μl glutathione-sepharose beads, and 20 μg GST-human Pak1-PBD were mixed together, and the reaction mixture was incubated at 4° C. for 1 hr with gentle rocking. The beads were then washed three times with lysis buffer, and proteins were eluted by boiling beads in 50 μl of the 2×SDS sample buffer at 95-100° C. for 5 min. […]

T3 sequence (P52735 whole entry, species assumed): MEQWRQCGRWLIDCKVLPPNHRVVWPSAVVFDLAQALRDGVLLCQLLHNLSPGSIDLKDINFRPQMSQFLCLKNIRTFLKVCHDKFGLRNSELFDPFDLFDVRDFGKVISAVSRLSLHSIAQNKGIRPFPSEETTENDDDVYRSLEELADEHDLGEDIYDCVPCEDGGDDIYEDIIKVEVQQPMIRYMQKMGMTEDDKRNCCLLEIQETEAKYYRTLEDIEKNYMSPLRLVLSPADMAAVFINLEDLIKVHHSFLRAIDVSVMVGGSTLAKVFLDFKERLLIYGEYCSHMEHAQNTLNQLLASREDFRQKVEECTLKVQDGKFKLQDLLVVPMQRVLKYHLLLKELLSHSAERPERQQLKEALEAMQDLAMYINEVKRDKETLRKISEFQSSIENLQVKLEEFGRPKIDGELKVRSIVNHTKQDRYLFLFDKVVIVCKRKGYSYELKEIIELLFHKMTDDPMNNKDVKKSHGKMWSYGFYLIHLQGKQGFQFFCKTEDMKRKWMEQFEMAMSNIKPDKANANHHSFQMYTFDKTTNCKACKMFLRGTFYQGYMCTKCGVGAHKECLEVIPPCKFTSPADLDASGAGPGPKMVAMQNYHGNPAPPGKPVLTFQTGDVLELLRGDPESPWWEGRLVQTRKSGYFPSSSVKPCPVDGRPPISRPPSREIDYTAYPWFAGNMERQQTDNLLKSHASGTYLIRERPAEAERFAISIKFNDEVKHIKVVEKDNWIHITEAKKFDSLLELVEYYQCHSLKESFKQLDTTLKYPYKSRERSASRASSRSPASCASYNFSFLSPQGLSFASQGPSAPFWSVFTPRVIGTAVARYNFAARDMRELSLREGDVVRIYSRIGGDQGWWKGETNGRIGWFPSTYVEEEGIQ
T1 sequence (P31749 5-108 limits assumed): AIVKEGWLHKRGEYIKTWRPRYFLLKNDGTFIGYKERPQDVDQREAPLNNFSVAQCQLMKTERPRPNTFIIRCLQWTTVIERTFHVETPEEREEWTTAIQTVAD
T2 sequence (Q06187 3-133 limits assumed): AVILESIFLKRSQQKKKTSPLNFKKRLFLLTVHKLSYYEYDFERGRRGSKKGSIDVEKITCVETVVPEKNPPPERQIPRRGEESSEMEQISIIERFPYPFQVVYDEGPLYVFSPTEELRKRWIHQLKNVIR

SMILES	inhibition of translocation of Akt PH domain to the plasma membrane (Akt PH domain)	inhibition of translocation of Btk PH domain to the plasma membrane (Btk PH domain)	inhibition of translocation of VAV2 to the plasma membrane (VAV2)	viability of U87MG cells (U87MG cells)	inhibition of cancer cell migration (human cancer cells)	cancer cell invasion through matrigel (cancer cells)	inhibition of cell migration in VAV- and WAVE-overexpressing cells compared to control cells [1]	activation of Rac1 caused by growth factor stimulation (Rac1)	killing of U87MG cells compared with LY294002 (U87MG cells)	growth factor-induced transwell migration of human cancer cells (human cancer cells; 8 hr)	cytotoxic effects at the low concentrations used in migration and invasion experiments (cancer cells; P>0.05)
O=C1NC(=S)S/C1=C\c1cc(O)c([N+](=O)[O-])cc1Cc1ccccc1 [PIT-2]	significantly inhibited	significantly inhibited	significantly inhibited	reduce viability	efficiently inhibited cell migration	efficiently suppressed	larger degree of inhibition	efficiently suppressed			
O=C(NC(=S)Nc1cc([N+](=O)[O-])cc(Cl)c1O)c1ccccc1 [PIT-1]	significantly inhibited	significantly inhibited	significantly inhibited	reduce viability	much stronger than that of Akt kinase inhibitor VIII	efficiently suppressed	larger degree of inhibition	efficiently suppressed	more pronounced than that by the PI3K inhibitor LY294002	substantially inhibited	no significant cytotoxic effects
